Data: patent US6156790A, “C-10 carbon-substituted artemisinin-like trioxane compounds having antimalarial, antiproliferative and antitumor activities” (priority 1997, dated 2000)

How the values were obtained:
[1] = test system: EKVX; assay: NCI 60 cell line screen (SRB), non-small cell lung cancer; type: cell-based; conditions: Homo sapiens, read-out: Log10 GI50 (converted)
[2] = test system: HL-60(TB); assay: cells; conditions: Homo sapiens, HL-60, read-out: Log10 LC50 (converted)
[3] = test system: ACHN; assay: cells; conditions: Homo sapiens
[4] = test system: 60 cell line panel; assay: NCI 60 cell line screen, whole panel; type: cell-based; conditions: panel
[5] = test system: NCI-H23; assay: NCI 60 cell line screen (SRB), non-small cell lung cancer; type: cell-based; conditions: Homo sapiens, read-out: Log10 GI50 (converted)
[6] = test system: CAKI-1; assay: NCI 60 cell line screen (SRB), renal cancer; conditions: Homo sapiens
[7] = test system: UACC-62; assay: cells; type: cell-based; conditions: Homo sapiens, read-out: Log10 TGI (converted)
[8] = test system: RXF 393; assay: cells; conditions: Homo sapiens
[9] = test system: IGROVI; assay: cells; conditions: 60 cell, read-out: Log10 GI50 (converted)
[10] = test system: chloroquine-sensitive P. falciparum (NF54); assay: In vitro antimalarial activity ([3H]hypoxanthine incorporation); type: cell-based; conditions: for IC50: Plasmodium falciparum, NF54; for IC50 compared with artemisinin: in words
Description: Activity was determined by measuring the incorporation of [^3 H]hypoxanthine, by the methods of Desjardins and Milhouse, with the following modofications, see […].; Haynes, […]. Antimicrob. Agents Chemother., 16:710 (1979); Milhous, W. K.; Weatherly, […].; Antimicrob. Agents Chemother., 27: 525 (1985). […] Parasitemia was maintained at 0.05-3% and doubling time at approximately 15 hours by twice weekly change of medium and replenishment with fresh erythrocytes. […] Sigma-Aldrich #27,043-1). DMSO solutions were diluted 500-fold in medium, serially diluted in 0.2% DMSO in medium (to maintain constant solvent concentration), then 100 μL aliquots were pipetted into microtiter plate wells (Costar 3595). […] Plates included at least 8 wells of no drug controls (4 with and 4 without DMSO) and 4 wells of uninfected erythrocytes. […] Cells were harvested (Brandel MB-48R) onto GF-C glass filters (Brandel). The filters were washed five times with 3 mL water per sample spot, dried under a heat lamp, and counted (Beckman Model LS-6500) in scintillation cocktail (ICN Cytoscint). Decays per minute (dpm) values were downloaded and analyzed (Power MFacintosh 7200/90; Microsoft Excel 5.0), to yield the mean and standard deviation at each drug concentration.

[11] = test system: murine keratinocyte cell line PE; assay: growth inhibition of PE cells (MTT assay); type: cell-based; conditions: 100 nanomolar
Description: To determine the inhibitory effect of the compositions of the present invention on cell proliferation, screening assays were performed on a murine keratinocyte cell line PE. Cell line PE was chosen for its particular sensitivity to the induction of ornithine decarboxylase (ODC) activity by the extensively characterized tumor promoter TPA. […] PE cell culture medium consisted of Eagle's minimal essential medium without calcium chloride (Whittaker Bioproducts, Walkersville, Mass.) supplemented with 8% chelexed fetal calf serum and 1% antibiotic-antimycotic (Gibco BRL) and the addition of CaCl2 to 0.05 mM Ca^++.
Growth Inhibition. Growth curves, shown in FIGS. 1 and 2, for PE cells treated with calcitriol and the C-10 carbon-substituted dimers 21, 22, 26, 27, and 28 generated by assay for the reduction of the tetrazolium-based compound MTT, see Charmichael, et al., Cancer Res., 47:936-942 (1987). […] PE cells were seeded at a density of 5,000 cells/well in 50 μL of medium into 96-well microtiter plates. Twelve hours later, the medium was removed, and cells were treated with 100 μL of fresh medium into which the appropriate amount of calcitrol or analog dissolved in dimethyl sulfoxide (DMSO) had been added, with the concentration of DMSO held constant at 0.1%. […] At 24-hour intervals following the initial treatment of the cells with compounds, 0.1 mg (50 μL of a 2 mg/mL solution) of MTT was added to each well. After 4 hours, the MTT was removed and DMSO added to dissolve the blue formazan dye. Using a microtiter plate reader, the A505 was then determined and cell number calculated from blank-subtracted absorbance values.

CC(=O)O[C@H]1C(=O)[C@@]2(C)[C@H]([C@H](OC(=O)c3ccccc3)[C@]3(O)C[C@H](OC(=O)[C@H](O)[C@@H](NC(=O)c4ccccc4)c4ccccc4)C(C)=C1C3(C)C)[C@]1(OC(C)=O)CO[C@@H]1C[C@@H]2O [Paclitaxel, paclitaxel, reference compound]
GI50 [1]: 0.214 nM
CC50 [2]: > 29500 nM
CC50 ([3]; read-out: Log10 LC50 (converted)): 35500 nM
IC (TGI) ([3]; read-out: Log10 TGI): 12600 nM
GI50 ([4]; 60 cell, read-out: Log10 GI50 Delta (converted)): 0.0708 nM
Log10 TGI Delta [4]: -4.54
Log10 TGI Range [4]: 7.20
GI50 [5]: 0.0759 nM
CC50 ([6]; CAKI-1, read-out: Log10 LC50 (converted)): > 100000 nM
IC (TGI) ([6]; CAKI-1, read-out: Log10 TGI): 91200 nM
IC (TGI) [7]: 19500 nM
CC50 ([8]; RXF 393, read-out: Log10 LC50 (converted)): > 100000 nM
IC (TGI) ([8]; RXF 393, read-out: Log10 TGI): > 100000 nM
GI50 [9]: 2.45 nM

COc1ccc2cc([C@@H]3O[C@@H]4O[C@@]5(C)CC[C@H]6[C@H](C)CC[C@@H]([C@H]3C)[C@@]46OO5)c(OC)cc2c1 [Monomer 15, 10α-(2',7'-dimethoxynaphth-3'-yl)deoxoartemisinin]
IC50 ([10]; survey data (preliminary)): 11 nM

C[C@H]1[C@@H](C#Cc2cccc(C#C[C@H]3O[C@@H]4O[C@@]5(C)CC[C@H]6[C@H](C)CC[C@@H]([C@H]3C)[C@@]46OO5)c2)O[C@@H]2O[C@@]3(C)CC[C@H]4[C@H](C)CC[C@@H]1[C@@]24OO3 [Dimer 27]
antiproliferative activity compared with calcitriol [11]: at least as antiproliferative as calcitrol

C[C@H]1[C@H](c2cccn2C)O[C@@H]2O[C@@]3(C)CC[C@H]4[C@H](C)CC[C@@H]1[C@@]24OO3 [Monomer 16, 10α-(N-methylpyrrol-2'-yl)deoxoartemisinin]
IC50 ([10]; survey data (preliminary)): 8.4 nM
IC50 compared with artemisinin [10]: lower than that of artemisinin

C[C@H]1[C@@H](C#Cc2ccc(Cl)cc2)O[C@@H]2O[C@@]3(C)CC[C@H]4[C@H](C)CC[C@@H]1[C@@]24OO3 [Monomer 9, 10β-(4'-Chlorophenylethynyl) deoxoartemisinin]
IC50 ([10]; survey data (preliminary)): 16 nM

C[C@H]1[C@H](c2ccco2)O[C@@H]2O[C@@]3(C)CC[C@H]4[C@H](C)CC[C@@H]1[C@@]24OO3 [Monomer 17]
IC50 ([10]; survey data (preliminary)): 1.5 nM
IC50 compared with artemisinin [10]: lower than that of artemisinin

CO[C@H]1O[C@@H]2O[C@@]3(C)CC[C@H]4[C@H](C)CC[C@@H]([C@H]1C)[C@@]24OO3 [Artemether, artemether, reference compound]
IC50 [10]: 5.4 nM
IC50 compared with artemisinin [10]: lower than that of artemisinin

COc1cc(OC)c([C@@H]2O[C@@H]3O[C@@]4(C)CC[C@H]5[C@H](C)CC[C@@H]([C@H]2C)[C@@]35OO4)c(OC)c1 [Monomer 14]
IC50 ([10]; survey data (preliminary)): 11 nM

COc1cc(OC)c([C@@H]2O[C@@H]3O[C@@]4(C)CC[C@H]5[C@H](C)CC[C@@H]([C@H]2C)[C@@]35OO4)cc1[C@@H]1O[C@@H]2O[C@@]3(C)CC[C@H]4[C@H](C)CC[C@@H]([C@H]1C)[C@@]24OO3 [Dimer 26]
antiproliferative activity compared with calcitriol [11]: at least as antiproliferative as calcitrol

COc1ccc([C@@H]2O[C@@H]3O[C@@]4(C)CC[C@H]5[C@H](C)CC[C@@H]([C@H]2C)[C@@]35OO4)c(OC)c1 [Monomer 13]
IC50 ([10]; survey data (preliminary)): 8.9 nM
IC50 compared with artemisinin [10]: lower than that of artemisinin

C[C@H]1[C@@H](C#Cc2ccc(C#C[C@H]3O[C@@H]4O[C@@]5(C)CC[C@H]6[C@H](C)CC[C@@H]([C@H]3C)[C@@]46OO5)cc2)O[C@@H]2O[C@@]3(C)CC[C@H]4[C@H](C)CC[C@@H]1[C@@]24OO3 [Dimer 28]
antiproliferative activity compared with calcitriol [11]: at least as antiproliferative as calcitrol
